Publication PMC4310624 (Biochemistry, 2014)

Assays:
[1] = tested on: class A or C enzymes; conditions: ref unpublished screening work, Bethel and Bonomo; cited from earlier work
[2] = tested on: E. coli DH10B pBCSK control; assay: Disc diffusion assay, control strain; assay type: cell-based, Escherichia coli; conditions: cephalothin 30 μg and 30 μg of each inhibitor, 37 °C, 18 h
[3] = tested on: E. coli DH10B pBCSK SHV-1; assay: Disc diffusion assay, SHV-1 expressing strain; assay type: cell-based, Escherichia coli; conditions: for zone size of cephalothin combined with the inhibitor: strain expressing SHV-1
[4] = Base hydrolysis in 1 M NaOH followed by Raman spectroscopy; assay type: physicochemical
[5] = biological target: T1, SHV-1 (Klebsiella pneumoniae, UniProt P0AD64); conditions: SHV-1, E/I = 1:10, nitrocefin assay
T1 sequence (P0AD64 22-286): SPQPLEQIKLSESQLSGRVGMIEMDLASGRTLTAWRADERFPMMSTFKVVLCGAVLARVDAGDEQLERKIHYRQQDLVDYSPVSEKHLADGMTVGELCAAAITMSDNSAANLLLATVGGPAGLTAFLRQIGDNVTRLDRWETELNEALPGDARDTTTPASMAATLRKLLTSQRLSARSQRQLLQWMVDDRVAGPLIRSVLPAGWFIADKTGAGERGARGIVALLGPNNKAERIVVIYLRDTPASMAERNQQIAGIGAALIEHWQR

SMILES: CC1(C)[C@H](C(=O)O)N2C(=O)[C@@H](CO)[C@H]2S1(=O)=O [6α-(hydroxymethyl)penicillanic acid sulfone]
- inhibition in the IC50 or MIC assays [1]: did not show any inhibition

SMILES: CC(=O)OCC1=C(C(=O)O)N2C(=O)[C@@H](NC(=O)Cc3cccs3)[C@H]2SC1 [cephalothin]
- zone diameter [2]: 34 mm
- zone diameter ([3]; cephalothin 30 μg and 30 μg of each inhibitor, 37 °C, 18 h): 6 mm

SMILES: CC1(C)[C@H](C(=O)O)N2C(=O)C[C@H]2S1(=O)=O [sulbactam]
- zone size of cephalothin combined with the inhibitor [3]: 10 mm
- time for conversion of imine to cis-enamine ([4]; 1 M NaOH, Raman, all imine converted): 60 min
- time to hydrolysis to imine (lactam ring opening, imine maximum) ([4]; 1 M NaOH, room temperature, Raman): less than 3 min
- time for iminium ion conversion to cis-enamine ([4]; base hydrolysis, as stated in abstract): 1 h
- enzyme activity against nitrocefin after reaction with inhibitor [5]: remained fully active

SMILES: C[C@]1(Cn2ccnn2)[C@H](C(=O)O)N2C(=O)C[C@H]2S1(=O)=O [tazobactam]
- zone size of cephalothin combined with the inhibitor [3]: 16 mm
